The results in this text go back to ChEMBL document CHEMBL4715873, “A novel synthetic acanthoic acid analogues and their cytotoxic activity in cholangiocarcinoma cells” (Bioorg Med Chem, 2021).

Each structure is given as a SMILES string.

Assay [1] is described as follows: Cytotoxicity against human KKU-214 cells assessed as growth inhibition incubated for 48 hrs by MTT assay. The format is functional, cell-based, KKUM214. The following applies: KKU-M214, 48 h. Background: Tetrazolium assays rely on reduction of a dye to a coloured formazan, in cell work by metabolically active cells.
Assay [2] in a line: Cytotoxicity against human KKU-055 cells assessed as growth inhibition incubated for 48 hrs by MTT assay. The format is functional, cell-based, KKUM055. The following applies: KKU-M055, 48 h.
Assay [3] is described as follows: Cytotoxicity against human KKU-100 cells assessed as growth inhibition incubated for 48 hrs by MTT assay. The format is functional, cell-based. The following applies: KKU100, 48 h.
Assay [4] in a line: Cytotoxicity against human KKU-213 cells assessed as growth inhibition incubated for 48 hrs by MTT assay. The assay is classed as functional, cell-based, KKUM213. The following applies: KKU-M213, 48 h.
A short description of assay [5]: Cytotoxicity against human PBMC assessed as growth inhibition incubated for 48 hrs by MTT assay.
Assay [6] can be described thus: Potency index, ratio of acid IC50 to compound IC50 for cytotoxicity against human KKU-213 cells assessed as growth inhibition incubated for 48 hrs by MTT assay. The format is functional, KKUM213.

For orientation: IC50 means the concentration that gives 50% inhibition. For `C=C[C@@]1(C)CC=C2[C@@H](CC[C@@H]3[C@](C)(C(=O)OCc4cn(Cc5ccc(C)cc5)nn4)CCC[C@@]23C)C1`, the IC50 in assay [1] is 39 µM; in assay [2], > 50 µM; in assay [3], > 50 µM; in assay [4] it was 47 µM.

With `C#CCOC(=O)[C@]1(C)CCC[C@@]2(C)C3=CC[C@](C)(C=C)C[C@@H]3CC[C@H]12`, the IC50 in assay [1] is 34 µM; in assay [2] it was 37 µM; in assay [3], > 50 µM; in assay [4], 31 µM; in assay [5], 71 µM.

Take `C=C[C@@]1(C)CC=C2[C@@H](CC[C@@H]3[C@](C)(C(=O)OCc4cn(Cc5ccc(Br)cc5)nn4)CCC[C@@]23C)C1`: the IC50 in assay [1], in assay [2], in assay [3] and in assay [4] was > 50 µM each time.

For the compound `C=C[C@@]1(C)CC=C2[C@@H](CC[C@@H]3[C@](C)(C(=O)OCCCC)CCC[C@@]23C)C1`, the IC50 is > 50 µM in assay [1], 49 µM in assay [2], > 50 µM in assay [3] and 37 µM in assay [4].

Regarding `C=C[C@@]1(C)CC=C2[C@@H](CC[C@@H]3[C@](C)(C(=O)OCc4ccc(Br)cc4)CCC[C@@]23C)C1`, the IC50 was 41 µM in assay [1], > 50 µM in assay [2], > 50 µM in assay [3] and 41 µM in assay [4].

Consider `C=C[C@@]1(C)CC=C2[C@@H](CC[C@@H]3[C@](C)(C(=O)OCc4ccc(Cl)cc4)CCC[C@@]23C)C1`, for which the IC50 in assay [1], in assay [2], in assay [3] and in assay [4] was > 50 µM throughout.

For `C=C[C@@]1(C)CC=C2[C@@H](CC[C@@H]3[C@](C)(C(=O)OCc4ccccc4F)CCC[C@@]23C)C1`, the IC50 in assay [1] was > 50 µM; in assay [2], 47 µM; in assay [3] it was > 50 µM; in assay [4], 35 µM.

Take `C=C[C@@]1(C)CC=C2[C@@H](CC[C@@H]3[C@](C)(C(=O)OCc4cn(Cc5ccc(OC)cc5)nn4)CCC[C@@]23C)C1`: the IC50 in assay [1], in assay [2], in assay [3] and in assay [4] was > 50 µM throughout.

With `C=C[C@@]1(C)CC=C2[C@@H](CC[C@@H]3[C@](C)(C(=O)OCc4cn(Cc5ccccc5F)nn4)CCC[C@@]23C)C1`, the IC50 in assay [1], in assay [2], in assay [3] and in assay [4] was > 50 µM in each case.

With `C=C[C@@]1(C)CC=C2[C@@H](CC[C@@H]3[C@](C)(C(=O)OCc4cn(Cc5ccc(Cl)cc5)nn4)CCC[C@@]23C)C1`, the IC50 was 39 µM in assay [1], > 50 µM in assay [2], > 50 µM in assay [3] and > 50 µM in assay [4].

As for `C=C[C@@]1(C)CC=C2[C@@H](CC[C@@H]3[C@](C)(C(=O)OCc4ccc(C)cc4)CCC[C@@]23C)C1`, the IC50 in assay [1], in assay [2], in assay [3] and in assay [4] was > 50 µM each time.

Consider `C=C[C@@]1(C)CC=C2[C@@H](CC[C@@H]3[C@](C)(C(=O)OCc4ccc(OC)cc4)CCC[C@@]23C)C1`, for which the IC50 in assay [1], in assay [2], in assay [3] and in assay [4] was > 50 µM in each case.

For `C=C[C@@]1(C)CC=C2[C@@H](CC[C@@H]3[C@](C)(C(=O)OCc4ccc([N+](=O)[O-])cc4)CCC[C@@]23C)C1`, the IC50 in assay [1], in assay [2], in assay [3] and in assay [4] was > 50 µM throughout.

In the case of `C=C[C@@]1(C)CC=C2[C@@H](CC[C@@H]3[C@](C)(C(=O)OCc4ccc(F)cc4)CCC[C@@]23C)C1`, the IC50 in assay [1] is > 50 µM; in assay [2], > 50 µM; in assay [3], > 50 µM; in assay [4], 38 µM.

Regarding `C=C[C@@]1(C)CC=C2[C@@H](CC[C@@H]3[C@](C)(C(=O)OCc4cn(CCCCCCCC)nn4)CCC[C@@]23C)C1`, the IC50 is 38 µM in assay [1], 48 µM in assay [2], > 50 µM in assay [3] and 37 µM in assay [4].

With `C=CCOC(=O)[C@]1(C)CCC[C@@]2(C)C3=CC[C@](C)(C=C)C[C@@H]3CC[C@H]12`, the IC50 in assay [1], in assay [2], in assay [3] and in assay [4] was > 50 µM throughout.

Turning to `C=C[C@@]1(C)CC=C2[C@@H](CC[C@@H]3[C@](C)(C(=O)OCc4cn(Cc5cccc(F)c5)nn4)CCC[C@@]23C)C1`, the IC50 in assay [1], in assay [2], in assay [3] and in assay [4] was > 50 µM each time.

On to `C=C[C@@]1(C)CC=C2[C@@H](CC[C@@H]3[C@](C)(C(=O)OCc4ccccc4)CCC[C@@]23C)C1`, for which the IC50 in assay [1], in assay [2], in assay [3] and in assay [4] was > 50 µM each time.

For `C=C[C@@]1(C)CC=C2[C@@H](CC[C@@H]3[C@](C)(C(=O)OCc4cccc(F)c4)CCC[C@@]23C)C1`, the IC50 in assay [1] was > 50 µM; in assay [2] it was 41 µM; in assay [3], > 50 µM; in assay [4], 28 µM; in assay [5], 163 µM.

For `C=C[C@@]1(C)CC=C2[C@@H](CC[C@@H]3[C@](C)(C(=O)OCCCCCCCC)CCC[C@@]23C)C1`, the IC50 in assay [1], in assay [2], in assay [3] and in assay [4] was > 50 µM in each case.

As to `C=C[C@@]1(C)CC=C2[C@@H](CC[C@@H]3[C@](C)(C(=O)OCc4cn(Cc5ccc([N+](=O)[O-])cc5)nn4)CCC[C@@]23C)C1`, the IC50 in assay [1] is 21 µM; in assay [2], 33 µM; in assay [3], > 50 µM; in assay [4], 18 µM; in assay [5], > 200 µM. Also, the “Ratio IC50” value in assay [6] worked out at 8.

With `C=C[C@@]1(C)CC=C2[C@@H](CC[C@@H]3[C@](C)(C(=O)OCc4cn(Cc5ccc(F)cc5)nn4)CCC[C@@]23C)C1`, the IC50 in assay [1], in assay [2], in assay [3] and in assay [4] was > 50 µM each time.

As to `C=C[C@@]1(C)CC=C2[C@@H](CC[C@@H]3[C@](C)(C(=O)OCc4cn(Cc5ccccc5)nn4)CCC[C@@]23C)C1`, the half-inhibitory concentration (IC50) in assay [1] is 41 µM; in assay [2], 47 µM; in assay [3] it was > 50 µM; in assay [4] it was 40 µM.

`C=C[C@@]1(C)CC=C2[C@@H](CC[C@@H]3[C@](C)(C(=O)O)CCC[C@@]23C)C1`: the IC50 in assay [1] turned out to be 168 µM; in assay [2], 120 µM; in assay [3], 174 µM; in assay [4], 149 µM.

On to `O=C(NC1=CC(=O)[C@H]2O[C@H]2[C@H]1O)c1ccccc1O` [DEHYDROXYMETHYLEPOXYQUINOMICIN], for which the IC50 in assay [1] and in assay [4] was 19 µM throughout.
